One data set deals with Anas platyrhynchos. The conditions noted are these: short-term; oral; feed; mortality.
For another data set, the system named is Apis mellifera. To be noted: acute; duration: 48 hours; oral; unspecified; mortality.
The next data set concerns Daphnia magna. The conditions noted are these: chronic/long-term; duration: 21 days; reproduction.
Another data set has as its system Tagia sp. To be noted: acute; duration: 14 days; mortality.

≈ marks a conversion by molar mass, not a printed value. Where “and” joins values, the source holds several entries; their conditions need not be identical. Identical values can stand only once.

Broadly, the NOAEL is the highest dose or exposure tested at which no adverse effect was seen. Consider `Nc1cnn(-c2ccccc2)c(=O)c1Cl` [Chloridazon], for which the LC50 in the data set with Anas platyrhynchos is 1110 mg/kg; in the data set with Oncorhynchus mykiss (acute, duration: 96 hours, mortality) it was 41.3 µg/mL (≈ 186 µM); with Tagia sp. it was more than 1000 mg/kg. For the same molecule, the LD50 in the data set with Apis mellifera is more than 200 µg/piece; with Colinus virginianus (acute, oral, mortality) it was not below 2000 mg/kg; with Rattus norvegicus (acute, oral, F, mortality) it was 2140 mg/kg and 825 mg/kg. In addition, the NOAEL came out at 21.8 mg/kg-day in the data set with Colinus virginianus (reproduction developmental, F); 13 mg/kg-day in the data set on Rattus norvegicus (chronic, duration: 2 years, body weight); 37 mg/kg-day in the data set with Rattus norvegicus (reproduction developmental, body weight); 37 mg/kg-day in the data set with Rattus norvegicus (reproduction developmental, reproduction); 21 mg/kg-day in the data set with Rattus norvegicus (subchronic, duration: 90 days, oral, body weight). The NOEC with Daphnia magna turned out to be 10 mg/L; with Oncorhynchus mykiss (chronic/long-term, duration: 28 days, growth), 3.16 mg/L.

The values are drawn from EPA's ToxValDB 9.5 (doi:10.2903/j.efsa.2007.108r).
